Results from patent US7238694B2, “Rifamycin imino derivatives effective against drug-resistant microbes” (Cumbre Pharmaceuticals, Inc., priority 2004, dated 2007).
In brackets after ≈: the same amount, converted by molar mass.

Tests used:
Type in all cases: cell-based
[1] = test system: Staphylococcus aureus ATCC29213 rpoB^H418Y; assay: microbe, parasite or virus in culture; conditions: Staphylococcus aureus, ATCC29213; rifR strain; Cation-Adjusted Mueller-Hinton Broth, 37° C.; read-out: MIC
[2] = test system: Staphylococcus aureus MT1222 gyrA^A116E grlB^S80F; assay: microbe, parasite or virus in culture; conditions: cipR strain, Cation-Adjusted Mueller-Hinton Broth, 37° C., read-out: MIC
[3] = test system: Staphylococcus aureus ATCC29213; assay: MIC, microbroth dilution (NCCLS); conditions: rifS strain, Cation-Adjusted Mueller-Hinton Broth, 37° C., read-out: MIC
[4] = test system: Haemophilus influenzae ATCC10211; assay: MIC, microbroth dilution (NCCLS); conditions: rifS strain, BHI Broth with NAD and hematin, 37° C., read-out: MIC
[5] = test system: Staphylococcus epidermidis ATCC12228; assay: MIC, microbroth dilution (NCCLS); conditions: rifS strain, Cation-Adjusted Mueller-Hinton Broth, 37° C., read-out: MIC
[6] = test system: Streptococcus pneumoniae ATCC6303; assay: MIC, microbroth dilution (NCCLS); conditions: rifS strain, THY Broth with 1 mg/mL catalase, 5% CO2, 37° C., read-out: MIC
[7] = test system: Streptococcus pyogenes ATCC19615; assay: MIC, microbroth dilution (NCCLS); conditions: rifS strain, THY Broth, 37° C., read-out: MIC

SMILES | MIC [1] | MIC [2] | MIC [3] | MIC [4] | MIC [5] | MIC [6] | MIC [7]
COc1c(N2CCC(C(C)NC3CCN(/N=C/c4c5c(O)c6c(O)c(C)c7c(c6c4O)C(=O)[C@@](C)(O/C=C/[C@H](OC)[C@@H](C)[C@@H](OC(C)=O)[C@H](C)[C@H](O)[C@H](C)[C@@H](O)[C@@H](C)/C=C/C=C(/C)C(=O)N5)O7)CC3)C2)c(F)cc2c(=O)c(C(=O)O)cn(C3CC3)c12 (mixture of isomers) [Example 41, 3-{4-[1-(3-Carboxy-1-cyclopropyl-6-fluoro-8-methoxy-4-oxo-1,4-dihydroquinolin-7-yl)-pyrrolidin-3-yl-ethylamino]-piperidin-1-yl-aminomethylenyl}-rifamycin SV] | 0.06 to 16 µg/mL | 0.008 to 0.125 µg/mL | 0.008 to 1 µg/mL | 0.125 to 4 µg/mL | 0.008 to 0.1 µg/mL | 0.008 to 0.06 µg/mL | 0.008 to 0.03 µg/mL
CO[C@H]1/C=C/O[C@@]2(C)Oc3c(C)c(O)c4c(O)c(c(/C=N/N5CCN(c6c(F)cc7c(=O)c(C(=O)O)cn(C8CC8)c7c6Cl)CC5)c(O)c4c3C2=O)NC(=O)/C(C)=C\C=C\[C@H](C)[C@H](O)[C@@H](C)[C@@H](O)[C@@H](C)[C@H](OC(C)=O)[C@@H]1C [Example 40, 3-[4-(3-Carboxy-8-chloro-1-cyclopropyl-6-fluoro-4-oxo-1,4-dihydroquinolin-7-yl)-piperazin-1-yl-aminomethylenyl]-rifamycin SV] | 0.06 to 16 µg/mL (≈ 0.0551 to 14.7 µM) | 0.008 to 0.125 µg/mL (≈ 0.00735 to 0.115 µM) | 0.008 to 1 µg/mL (≈ 0.00735 to 0.919 µM) | 0.125 to 4 µg/mL (≈ 0.115 to 3.67 µM) | 0.008 to 0.1 µg/mL (≈ 0.00735 to 0.0919 µM) | 0.008 to 0.06 µg/mL (≈ 0.00735 to 0.0551 µM) | 0.008 to 0.03 µg/mL (≈ 0.00735 to 0.0276 µM)
COc1c(N2CCC(NC3CCN(/N=C/c4c5c(O)c6c(O)c(C)c7c(c6c4O)C(=O)[C@@](C)(O/C=C/[C@H](OC)[C@@H](C)[C@@H](OC(C)=O)[C@H](C)[C@H](O)[C@H](C)[C@@H](O)[C@@H](C)/C=C/C=C(/C)C(=O)N5)O7)CC3)C2)c(F)cc2c(=O)c(C(=O)O)cn(C3CC3)c12 (mixture of isomers) [Example 26, (R/S)-3-{4-[1-(3-Carboxy-1-cyclopropyl-6-fluoro-8-methoxy-4-oxo-1,4-dihydroquinolin-7-yl)-pyrrolidin-3-ylamino]-piperidin-1-yl-aminomethylenyl}-rifamycin SV] | 0.06 to 16 µg/mL (≈ 0.0514 to 13.7 µM) | 0.008 to 0.125 µg/mL (≈ 0.00685 to 0.107 µM) | 0.008 to 1 µg/mL (≈ 0.00685 to 0.857 µM) | 0.125 to 4 µg/mL (≈ 0.107 to 3.43 µM) | 0.008 to 0.1 µg/mL (≈ 0.00685 to 0.0857 µM) | 0.008 to 0.06 µg/mL (≈ 0.00685 to 0.0514 µM) | 0.008 to 0.03 µg/mL (≈ 0.00685 to 0.0257 µM)
CO[C@H]1/C=C/O[C@@]2(C)Oc3c(C)c(O)c4c(O)c(c(/C=N/N(C)C5CCN(c6cc7c(cc6F)c(=O)c(C(=O)O)cn7C6CC6)C5)c(O)c4c3C2=O)NC(=O)/C(C)=C\C=C\[C@H](C)[C@H](O)[C@@H](C)[C@@H](O)[C@@H](C)[C@H](OC(C)=O)[C@@H]1C (mixture of isomers) [Example 15, (R/S)-3-[1-(3-Carboxy-1-cyclopropyl-6-fluoro-4-oxo-1,4-dihydroquinolin-7-yl)-pyrrolidin-3-yl-N′-methylhydrazinomethylenyl]rifamycin SV] | 0.06 to 16 µg/mL (≈ 0.0562 to 15 µM) | 0.008 to 0.125 µg/mL (≈ 0.00749 to 0.117 µM) | 0.008 to 1 µg/mL (≈ 0.00749 to 0.936 µM) | 0.125 to 4 µg/mL (≈ 0.117 to 3.74 µM) | 0.008 to 0.1 µg/mL (≈ 0.00749 to 0.0936 µM) | 0.008 to 0.06 µg/mL (≈ 0.00749 to 0.0562 µM) | 0.008 to 0.03 µg/mL (≈ 0.00749 to 0.0281 µM)
CO[C@H]1/C=C/O[C@@]2(C)Oc3c(C)c(O)c4c(O)c(c(/C=N/N(C)C5CCN(c6nc7c(cc6F)c(=O)c(C(=O)O)cn7-c6ccc(F)cc6F)C5)c(O)c4c3C2=O)NC(=O)/C(C)=C\C=C\[C@H](C)[C@H](O)[C@@H](C)[C@@H](O)[C@@H](C)[C@H](OC(C)=O)[C@@H]1C (mixture of isomers) [Example 43, (R/S)-3-[1-[3-Carboxy-1-(2,4-difluoro-phenyl)-6-fluoro-4-oxo-1,4-dihydro-[1,8]naphthyridin-7-yl]-pyrrolidinyl-3-N′-methylhydrazinomethylenyl]rifamycin SV] | 0.06 to 16 µg/mL (≈ 0.0526 to 14 µM) | 0.008 to 0.125 µg/mL (≈ 0.00701 to 0.11 µM) | 0.008 to 1 µg/mL (≈ 0.00701 to 0.876 µM) | 0.125 to 4 µg/mL (≈ 0.11 to 3.51 µM) | 0.008 to 0.1 µg/mL (≈ 0.00701 to 0.0876 µM) | 0.008 to 0.06 µg/mL (≈ 0.00701 to 0.0526 µM) | 0.008 to 0.03 µg/mL (≈ 0.00701 to 0.0263 µM)
COc1c(N2CCC(C3(N(C)C4CCN(/N=C/c5c6c(O)c7c(O)c(C)c8c(c7c5O)C(=O)[C@@](C)(O/C=C/[C@H](OC)[C@@H](C)[C@@H](OC(C)=O)[C@H](C)[C@H](O)[C@H](C)[C@@H](O)[C@@H](C)/C=C/C=C(/C)C(=O)N6)O8)CC4)CC3)C2)c(F)cc2c(=O)c(C(=O)O)cn(C3CC3)c12 (mixture of isomers) [Example 16] | 0.06 to 16 µg/mL (≈ 0.0491 to 13.1 µM) | 0.008 to 0.125 µg/mL (≈ 0.00655 to 0.102 µM) | 0.008 to 1 µg/mL (≈ 0.00655 to 0.819 µM) | 0.125 to 4 µg/mL (≈ 0.102 to 3.27 µM) | 0.008 to 0.1 µg/mL (≈ 0.00655 to 0.0819 µM) | 0.008 to 0.06 µg/mL (≈ 0.00655 to 0.0491 µM) | 0.008 to 0.03 µg/mL (≈ 0.00655 to 0.0246 µM)
